Data as given in patent US6960610B2, “Use of glycogen phosphorylase inhibitors for treatment of cardiovascular diseases” (Novo Nordick, A/S, priority 2002, dated 2005).

Legend:
[1] = test system: heart tissue glycogen; test: Glycogen content of heart tissue following global ischemia; conditions: in the presence of 0.4 μg/ml compound
Method: Method: The glycogen contents of freeze-clamped heart samples were determined enzymatically as μmol of glycosyl units per gram wet weight after boiling the tissue in 0.4 N KOH and subsequent degradation of glycogen with amyloglycosidase

[2] = test system: isolated perfused rabbit hearts; test: Ischemia induced arrhythmia in the isolated perfused rabbit heart (Langendorff); conditions: 0.4 μg/ml, n=7
Method: The model evaluates the effect of a test compound on ischemia induced arrhythmia in isolated perfused rabbit hearts. The hearts were excised from rabbits and perfused via an aortic canula in a Langendorff set-up equipped with ECG and MAP electrodes. Global normotherm ischemia was induced by turning off the perfusion for 30 min. After 30 min the heart was reperfused and the total duration of arrhythmia was determined. Furthermore, ECG and surface monophasic action potentials (MAPS) were scored to describe the severity of ischemic damage.

[3] = test system: Rabbits (myocardial infarct); test: Anaesthetised rabbit model of myocardial infarction induced by transient coronary artery occlusion; assay type: in vivo; conditions: 10 mg/kg b.i.d.; left coronary artery ligated 30 min, reperfusion 2 hours
Method: Method: Rabbits were anaesthetized and mechanically ventilated with oxygen enriched air. A thoracotomy was performed and an infarct was produced by ligating the left coronary artery for 30 min. After 30 min. the heart was reperfused for 2 hours. The heart was excited and reperfused in Langendorff mode. The coronary artery was reoccluded and the heart was perfused with ink to delineate the area at risk. The heart was removed and cut into 2 mm slices and stained with triphenyl tetrazolium chloride. The area at risk and the infarct size was determined by planimetry.

OC[C@H]1NC[C@@H](O)[C@@H]1O [(2R,3R,4R)-3,4dihydroxy-2-hydroxymethylpyrrolidine]
glycogen content before ischemia ([1]; starting value): 16.9±1.5 glycosyl units/g wet weight | glycogen content after 30 min. of global ischemia ([1]; without compound 2.6±0.8): 6.9±1.1 glycosyl units/g wet weight | MAP score ([2]; 30 min global ischemia, reperfusion, without compound 2.3±0.3): 0.9±0.1 | ECG score ([2]; 30 min global ischemia, reperfusion, without compound 2.4±0.2): 0.7±0.3 | average arrhythmia length following reperfusion ([2]; 30 min global normotherm ischemia, then reperfusion, without compound 18.0±5.6): 0.0 ± 0.0 min | reduction of infarct size compared to untreated rabbits [3]: 45%
